Test results: patent US7029846B2, “Site-specific protein modification” (University of Medicine and Dentistry of New Jersey, priority 2000, dated 2006)
Starred links: 1 amine or outer side, 2 acyl side, 3 side chain; linkers in the order of their positions; H or OH if unused. Non-standard residues stand in square brackets, D forms with d. No end group written: not given here. Tyr(3-Ac) = 3-acetyl-tyrosine, CC(=O)c1cc(C[C@H](N[*:1])C(=O)[*:2])ccc1O[*:3]

Target: rhodamine labeled TAR RNA (TAR-Rh)
Test: FRET fluorescence quenching titration of fluorescein labeled Tat peptide with rhodamine labeled TAR RNA
Assay type: binding, HIV-1
Conditions: quenching of Tat-Fl (5 nM) emission at 512 nm with increasing TAR-Rh, 50 mM Tris-HCl, pH 7.4 at 25° C., 20 mM KCl, fit to quadratic equation (1), read-out: dissociation constant (KD)
Protocol: FIG. 2(B). Fluorescence intensity of Tat-Fl (5 nM) at 512 nm in the presence of increasing TAR-Rh concentrations. The solid line represents the best fits of the data by nonlinear regression to quadratic equation (1). The fluorescence measurements were performed on PTI fluorescence spectrophotometer controlled by Felix software. The excitation wavelength was 492 nm and slits width was set 3.5 nm for both excitation and emission. All samples were corrected for the light source excitation effect and for the background intensity of buffer fluorescence as well as for dilution factors. Buffer conditions: […] Tris-HCl, pH 7.4 at 25° C., 20 mM KCl.
To determine the binding affinities of a Tat peptide under physiological conditions and test the application of acetyl-Tyr, we developed a fluorescence resonance energy transfer (FRET) system containing TAR RNA and a Tat peptide uniquely labeled with donor and acceptor dye molecules (FIG. 1). […] (Clegg, R. M. (1992) Fluorescence resonance energy transfer and nucleic acids, Methods Enzymol. 211, 353–88; Yang, M., and Millar, D. P. (1997) Fluorescence resonance energy transfer as a probe of DNA structure and function, Methods Enzymol. 278, 417–444). The donor's lifetime and quantum yield are reduced upon energy transfer, and the acceptor fluorescence is increased, or sensitized. […]

Acetyl-Tyr-Tat peptide: HIV-1 Tat peptide (amino acids 47–56) with Tyr-47 replaced by 3-Acetyl-Tyrosine ([Tyr(3-Ac)]GRKKRRQRR)
Kd: 1 ± 0.5 nM
